Results reported in patent US6855730B2, “3-methylidenyl-2-indolinone modulators of protein kinase” (Sugen, Inc., priority 1998, dated 2005).

Biological target: T1, PDGFR-β (Homo sapiens, UniProt P09619)
T1 construct: host or cells: NIH 3T3
Assay: Biochemical PDGFR assay (ELISA, PDGFR-β expressing NIH 3T3 cell lysate)
Details: read-out: bio PDGF IC50
How it was run: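 Phosphorylation was read by ELISA (anti-phosphotyrosine serum, peroxidase secondary, ABTS at 410 nm) after a 30 min room-temperature reaction with 20 μM ATP, EDTA-stopped. Kinase was lysate-derived PDGFR-β (NIH 3T3) immobilised via 28D4C10 antibody, compound added 30 min before ATP.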

T1 sequence (P09619 33-1106): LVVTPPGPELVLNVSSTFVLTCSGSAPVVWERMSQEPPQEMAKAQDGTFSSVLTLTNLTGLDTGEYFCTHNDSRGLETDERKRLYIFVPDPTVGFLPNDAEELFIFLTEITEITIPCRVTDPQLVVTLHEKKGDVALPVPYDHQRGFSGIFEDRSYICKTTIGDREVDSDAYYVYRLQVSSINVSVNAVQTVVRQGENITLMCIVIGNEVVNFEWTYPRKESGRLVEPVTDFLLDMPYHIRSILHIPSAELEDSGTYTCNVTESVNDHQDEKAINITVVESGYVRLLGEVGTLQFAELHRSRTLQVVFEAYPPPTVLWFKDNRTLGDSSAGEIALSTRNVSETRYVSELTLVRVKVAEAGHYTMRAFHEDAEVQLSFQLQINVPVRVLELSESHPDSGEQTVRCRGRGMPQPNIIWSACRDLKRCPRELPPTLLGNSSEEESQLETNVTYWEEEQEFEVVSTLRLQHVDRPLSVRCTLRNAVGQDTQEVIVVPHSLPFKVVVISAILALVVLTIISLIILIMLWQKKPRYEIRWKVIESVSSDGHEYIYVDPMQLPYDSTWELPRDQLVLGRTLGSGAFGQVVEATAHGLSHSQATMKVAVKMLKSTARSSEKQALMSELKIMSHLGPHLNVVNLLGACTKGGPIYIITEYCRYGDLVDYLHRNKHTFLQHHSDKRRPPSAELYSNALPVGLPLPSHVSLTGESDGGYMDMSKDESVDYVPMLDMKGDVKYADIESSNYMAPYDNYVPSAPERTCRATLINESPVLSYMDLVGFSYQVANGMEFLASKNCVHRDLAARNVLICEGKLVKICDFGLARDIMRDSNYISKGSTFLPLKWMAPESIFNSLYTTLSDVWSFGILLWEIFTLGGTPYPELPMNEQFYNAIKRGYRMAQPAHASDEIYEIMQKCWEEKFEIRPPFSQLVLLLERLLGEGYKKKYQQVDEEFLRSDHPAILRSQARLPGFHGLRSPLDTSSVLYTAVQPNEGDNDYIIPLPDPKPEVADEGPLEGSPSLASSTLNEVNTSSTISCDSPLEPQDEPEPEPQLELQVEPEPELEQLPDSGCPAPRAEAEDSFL

SMILES	IC50 [µM]
COc1ccc(C=C2C(=O)Nc3cc(NC(C)=O)ccc32)cc1-c1cccc(NC(C)=O)c1 (mixture of isomers) [Example 63, N-[3-(3′-Acetylamino-6-methoxybiphenyl-3-ylmethylene)-2-oxo-2,3-dihydro-1H-indol-6-yl]-acetamide]	> 100
CNS(=O)(=O)c1ccc2c(c1)C(=Cc1[nH]c3ccccc3c1C)C(=O)N2 (racemic) [Example 154, 3-(3-Methyl-1H-indol-2-ylmethylene)-2-oxo-2,3-dihydro-1H-indole-5-sulfonic acid methylamide]	> 100
COc1ccc(/C=C2/C(=O)Nc3cc(NC(C)=O)ccc32)cc1-c1ccsc1 [Example 18, N-[3-(4-Methoxy-3-thiophene-3-ylbenzylidene)-2-oxo-2,3-dihydro-1H-indol-6-yl]-acetamide]	86.9
CC(C)c1cc(/C=C2/C(=O)Nc3ccc(Cl)cc32)cc(C(C)C)c1OCCN1CCOCC1 [Example 24, 5-chloro-3-[3,5-diisopropyl-4-(2-morpholin-4-ylethoxy)-benzylidene]-1,3-dihydroindol-2-one]	> 100
COc1cc(C)c(C=C2C(=O)Nc3cc(NC(C)=O)ccc32)cc1C(C)C [Example 27, N-[3-(5-Isopropyl-4-methoxy-2-methyl-benzylidene)-2-oxo-2,3-dihydro-1H-indol-6-yl]-acetamide]	> 100
COc1ccc(/C=C2/C(=O)Nc3cc(NC(C)=O)ccc32)cc1-c1cccs1 [Example 31, N-[3-(4-Methoxy-3-thiophen-2-ylbenzylidene)-2-oxo-2,3-dihydro-1H-indol-6-yl]-acetamide]	> 100
CC(=O)Nc1ccc2c(c1)NC(=O)/C2=C\c1ccc2c(c1)CCC(C)(C)O2 [Example 33, N-[3-(2,2-Dimethylchroman-6-ylmethylene)-2-oxo-2,3-dihydro-1H-indol-6-yl]-acetamide]	> 100
COc1cc(C)c(/C=C2/C(=O)Nc3ccc(Br)cc32)cc1C(C)C [Example 36, 5-Bromo-3-(5-isopropyl-4-methoxy-2-methyl-benzylidene)-1,3-dihydroindol-2-one]	> 100
COc1cc(/C=C2/C(=O)Nc3ccccc32)c(-c2cccs2)cc1OC [Example 39, 3-(4,5-Dimethoxy-2-thiophen-2-ylbenzylidene)-1,3-dihydroindol-2-one]	> 100
CC(=O)Nc1ccc2c(c1)NC(=O)/C2=C/c1ccc(OCCN2CCOCC2)c(-c2cccs2)c1 [Example 40, N-{3-[4-(2-Morpholin-4-ylethoxy)-3-thiophen-2-ylbenzylidene]-2-oxo-2,3-dihydro-1H-indol-6-yl}-acetamide]	> 100
Cc1cccc2c1/C(=C/c1ccc3c(c1)CCC(C)(C)O3)C(=O)N2 [Example 41, 3-(2,2-Dimethylchroman-6-ylmethylene)-4-methyl-1,3-dihydroindol-2-one]	> 100
CCOc1cccc(-c2cc(C=C3C(=O)Nc4ccccc43)ccc2OC)c1 [Example 46, 3-(3′-Ethoxy-6-methoxybiphenyl-3-ylmethylene)-1,3-dihydroindol-2-one]	> 100
COc1cc(C=C2C(=O)Nc3ccccc32)c(-c2ccccc2OC)cc1OC [Example 49, 3-(4,5,2′-Trimethoxybiphenyl-2-ylmethylene)-1,3-dihydroindol-2-one]	> 100
CC(=O)Nc1ccc2c(c1)NC(=O)/C2=C/c1ccc(OCCN2CCOCC2)c(-c2ccsc2)c1 [Example 50, N-{3-[4-(2-Morpholin-4-ylethoxy)-3-thiophen-3-ylbenzylidene]-2-oxo-2,3-dihydro-1H-indol-6-yl}-acetamide]	> 100
CC(=O)Nc1ccc2c(c1)NC(=O)/C2=C/c1ccc(OCCN2CCOCC2)c(C(C)(C)C)c1 [Example 55, N-{3-[3-tert-Butyl-4-(2-morpholin-4-ylethoxy)-benzylidene]-2-oxo-2,3-dihydro-1H-indol-6-yl}-acetamide]	> 100
CC(C)c1cc(/C=C2/C(=O)Nc3ccc(Br)cc32)cc(C(C)C)c1OCCN1CCOCC1 [Example 57, 5-Bromo-3-[3,5-diisopropyl-4-(2-morpholin-4-ylethoxy)benzylidene]-1,3-dihydroindol-2-one]	> 100
CCOc1cccc(-c2cc(OC)c(OC)cc2/C=C2/C(=O)Nc3ccccc32)c1 [Example 58, 3-(3′-Ethoxy-4,5-dimethoxybiphenyl-2-ylmethylene)-1,3-dihydroindol-2-one]	> 100

More lines, now with the values ahead:

IC50 [µM]	SMILES
56.7	CC1(C)CCc2cc(C=C3C(=O)Nc4ccc(Br)cc43)ccc2O1 (racemic) [Example 34, 5-Bromo-3-(2,2-dimethylchroman-6-ylmethylene)-1,3-dihydroindol-2-one]
> 100	COc1ccc(/C=C2/C(=O)Nc3ccc(F)cc32)cc1C1CCCC1 [Example 11, 3-(3-Cyclopentyl-4-methoxybenzylidene)-5-fluoro-1,3-dihydroindol-2-one]
> 100	COc1ccc(/C=C2/C(=O)Nc3ccc(Br)cc32)cc1-c1ccccc1 [Example 13, 5-Bromo-3-(6-methoxybiphenyl-3-ylmethylene)-1,3-dihydroindol-2-one]
26.5	CC1(C)CCc2cc(/C=C3/C(=O)Nc4ccc(Cl)cc43)ccc2O1 [Example 15, 5-Chloro-3-(2,2-dimethyl-chroman-6-ylmethylene)-1,3-dihydroindol-2-one]
> 100	CC(=O)Nc1ccc2c(c1)NC(=O)/C2=C/c1ccc(OCCN2CCOCC2)c(C2CCCCC2)c1 [Example 16, N-{3-[3-Cyclohexyl-4-(2-morpholin-4-ylethoxy)-benzylidene]-2-oxo-2,3-dihydro-1H-indol-6-yl}-acetamide]
> 100	COc1ccc(C=C2C(=O)Nc3ccccc32)cc1-c1cccc(NC(C)=O)c1 [Example 29, N-[2′-Methoxy-5′-(2-oxo-1,2-dihydroindol-3-ylidenemethyl)-biphenyl-3-yl]-acetamide]
> 100	COc1cc(C)c(/C=C2/C(=O)Nc3ccc(F)cc32)cc1C(C)C [Example 30, 5-Fluoro-3-(5-isopropyl-4-methoxy-2-methyl-benzylidene)-1,3-dihydroindol-2-one]
> 100	COc1ccc(/C=C2/C(=O)Nc3ccccc32)cc1-c1ccsc1 [Example 35, 3-(4-Methoxy-3-thiophen-3-ylbenzylidene)-1,3-dihydroindol-2-one]
> 100	COc1ccc(/C=C2/C(=O)Nc3ccc(F)cc32)cc1-c1ccccc1 [Example 37, 5-Fluoro-3-(6-methoxybiphenyl-3-ylmethylene)-1,3-dihydroindol-2-one]
43.1	O=C1Nc2ccc(F)cc2/C1=C\c1ccc2c(c1)CCO2 [Example 42, 3-(2,3-Dihydrobenzofuran-5-ylmethylene)-5-fluoro-1,3-dihydroindol-2-one]
11	COc1ccc(/C=C2/C(=O)Nc3ccc(F)cc32)cc1C1CCCCC1 [Example 43, 3-(3-Cyclohexyl-4-methoxybenzylidene)-5-fluoro-1,3-dihydroindol-2-one]
> 100	COc1ccc(/C=C2/C(=O)Nc3ccc(F)cc32)cc1C(C)C [Example 44, 5-Fluoro-3-(3-isopropyl-4-methoxybenzylidene)-1,3-dihydroindol-2-one]
> 100	COc1ccc(/C=C2/C(=O)Nc3ccc(Cl)cc32)cc1-c1cccs1 [Example 59, 5-chloro-3-(4-Methoxy-3-thiophen-2-ylbenzylidene)-1,3-dihydroindol-2-one]
24.5	COc1ccc(/C=C2/C(=O)Nc3ccc(Cl)cc32)cc1-c1cccnc1 [Example 60]
